target: T1, Thrombopoietin receptor (Homo sapiens) (UniProt P40238); experiment: (§1) Agonist activity as induced proliferation in Ba/F3-hTpoR murine lymphocyte expressing human TPOR; type: functional
T1 sequence (whole entry): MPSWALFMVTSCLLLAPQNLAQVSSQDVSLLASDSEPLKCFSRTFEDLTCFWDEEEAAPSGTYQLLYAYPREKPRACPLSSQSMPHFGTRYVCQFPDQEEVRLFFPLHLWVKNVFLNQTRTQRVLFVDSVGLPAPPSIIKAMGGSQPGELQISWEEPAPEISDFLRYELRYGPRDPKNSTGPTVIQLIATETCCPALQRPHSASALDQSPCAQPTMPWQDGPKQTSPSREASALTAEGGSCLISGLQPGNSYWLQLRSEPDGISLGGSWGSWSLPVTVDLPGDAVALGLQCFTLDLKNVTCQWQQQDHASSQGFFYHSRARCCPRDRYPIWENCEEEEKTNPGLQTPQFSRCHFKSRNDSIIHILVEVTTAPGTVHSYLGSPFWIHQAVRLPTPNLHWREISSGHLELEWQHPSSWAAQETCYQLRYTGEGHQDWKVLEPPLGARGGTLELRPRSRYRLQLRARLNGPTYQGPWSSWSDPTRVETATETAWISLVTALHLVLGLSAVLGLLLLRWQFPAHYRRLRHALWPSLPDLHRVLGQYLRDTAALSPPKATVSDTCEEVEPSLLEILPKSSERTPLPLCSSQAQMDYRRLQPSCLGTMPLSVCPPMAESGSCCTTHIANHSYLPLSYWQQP

Question: With `CC(C)(C)c1ccc(-c2cccc(-c3nc4cc(/C=C5\SC(=S)NC5=O)ccc4[nH]3)c2)cc1` as the molecule, how does the Efficacy read?
Answer: 137%

Question: Which Efficacy does the source give for `CC(C)(C)c1ccc(-c2cccc(-c3nc4cc(/C=C5\SC(=S)NC5=O)ccc4[nH]3)n2)cc1` here?
Answer: 90%

Question: For `CC(C)(C)c1ccc(-c2cccc(-c3nc4cc(/C=C5\SC(=S)NC5=O)ccc4[nH]3)c2O)cc1`, which Efficacy is on record?
Answer: 134%

Question: How did the Efficacy turn out when `Cc1ccc(-c2csc(-c3nc4cc(/C=C5\SC(=S)NC5=O)ccc4[nH]3)c2)cc1C` was run?
Answer: 123%

Question: How did the Efficacy turn out when `CC(C)(C)c1ccc(-c2cccc(-c3nc4cc(CC(C(=O)O)C(=O)O)ccc4[nH]3)n2)cc1` was run?
Answer: 13%

Question: Which Efficacy does the source give for `Cc1ccc(-c2cccc(-c3nc4cc(/C=C5\SC(=S)NC5=O)ccc4[nH]3)n2)cc1C` here?
Answer: 73%

Question: For `Cc1ccc(-c2ccc(-c3nc4cc(/C=C5\SC(=S)NC5=O)ccc4[nH]3)s2)cc1C`, which Efficacy is on record?
Answer: 117%

Question: With `C/C(=C\c1ccc2[nH]c(-c3cccc(-c4ccc(C(C)(C)C)cc4)n3)nc2c1)C(=O)O` as the molecule, how does the Efficacy read?
Answer: 109%

Question: `CC(C)(C)c1ccc(-c2ccc(-c3nc4cc(/C=C5\SC(=S)NC5=O)ccc4[nH]3)o2)cc1` was tested. Which Efficacy did it give?
Answer: 142%

Question: `O=C1NC(=S)S/C1=C\c1ccc2[nH]c(-c3cccc(-c4ccc(Cl)c(Cl)c4)n3)nc2c1` was tested. Which Efficacy did it give?
Answer: 19%

target: T2, Thrombopoietin receptor (Homo sapiens, UniProt P40238); experiment: as §1; type: functional
T2 sequence (P40238 whole entry): T1 sequence (whole entry)

Question: With `Cc1ccc(-c2cccc(-c3nc4c(C=C(C(=O)O)C(=O)O)cccc4[nH]3)n2)cc1C` as the molecule, how does the EC50 read?
Answer: Not Active

Question: Which EC50 does the source give for `C/C(=C\c1cccc2[nH]c(-c3cccc(-c4ccc(C)c(C)c4)n3)nc12)C(=O)O` here?
Answer: Not Active

Question: With `Cc1ccc(-c2cccc(-c3nc4c(/C=C5\SC(=S)NC5=O)cccc4[nH]3)n2)cc1C` as the molecule, how does the EC50 read?
Answer: Not Active

Question: Which EC50 does the source give for `CCOC(=O)/C(C)=C/c1ccc2[nH]c(-c3cccc(-c4ccc(C(C)(C)C)cc4)n3)nc2c1` here?
Answer: Not Active
